From patent US9364475B2, “Tablet formulation of a phosphatidylinositol 3-kinase inhibitor” (Sanofi, priority 2012, dated 2016)

Legend:
[1] = molecular target: PI3K (phosphatidylinositol 3-kinase) (Homo sapiens, UniProt P42336); conditions: cited from earlier work
[2] = test system: PI3K signaling pathway; conditions: cell lines in vitro and human xenograft tumor tissue in vivo; cited from earlier work
[3] = test system: human xenograft tumor models; conditions: multiple human xenograft tumor models; cited from earlier work
[4] = stability comparison of polymorphic forms; type: physicochemical; conditions: solid state, polymorphic forms of Compound (I)

PI3K (phosphatidylinositol 3-kinase), sequence (P42336 whole entry): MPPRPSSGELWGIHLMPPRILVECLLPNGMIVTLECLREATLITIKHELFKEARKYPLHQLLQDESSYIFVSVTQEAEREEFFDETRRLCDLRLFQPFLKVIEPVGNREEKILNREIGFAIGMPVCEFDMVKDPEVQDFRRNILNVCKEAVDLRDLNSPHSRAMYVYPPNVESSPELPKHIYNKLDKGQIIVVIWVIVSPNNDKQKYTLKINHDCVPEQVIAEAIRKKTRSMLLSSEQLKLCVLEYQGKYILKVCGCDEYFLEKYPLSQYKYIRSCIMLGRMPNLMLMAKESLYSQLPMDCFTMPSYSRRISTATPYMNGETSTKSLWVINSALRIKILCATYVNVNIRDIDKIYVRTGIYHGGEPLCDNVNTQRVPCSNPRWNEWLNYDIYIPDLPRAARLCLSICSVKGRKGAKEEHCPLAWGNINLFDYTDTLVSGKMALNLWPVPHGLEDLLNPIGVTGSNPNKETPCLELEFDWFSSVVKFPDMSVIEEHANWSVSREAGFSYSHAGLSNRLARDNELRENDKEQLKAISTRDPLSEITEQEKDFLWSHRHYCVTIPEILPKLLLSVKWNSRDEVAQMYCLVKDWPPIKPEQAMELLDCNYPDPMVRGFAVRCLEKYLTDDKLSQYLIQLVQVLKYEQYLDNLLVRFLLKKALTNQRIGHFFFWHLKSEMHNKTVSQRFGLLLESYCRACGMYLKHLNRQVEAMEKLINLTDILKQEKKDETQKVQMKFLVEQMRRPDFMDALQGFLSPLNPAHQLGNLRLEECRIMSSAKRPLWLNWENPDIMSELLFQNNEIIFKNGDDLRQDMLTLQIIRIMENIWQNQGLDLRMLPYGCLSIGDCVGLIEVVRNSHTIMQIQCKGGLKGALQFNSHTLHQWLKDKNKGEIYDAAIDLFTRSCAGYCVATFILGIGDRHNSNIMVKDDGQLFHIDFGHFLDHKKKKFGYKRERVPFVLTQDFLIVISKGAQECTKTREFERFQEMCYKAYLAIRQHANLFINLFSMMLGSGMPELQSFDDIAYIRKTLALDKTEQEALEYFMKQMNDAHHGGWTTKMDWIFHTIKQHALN
PI3K (phosphatidylinositol 3-kinase), sequence (P27986 whole entry partner): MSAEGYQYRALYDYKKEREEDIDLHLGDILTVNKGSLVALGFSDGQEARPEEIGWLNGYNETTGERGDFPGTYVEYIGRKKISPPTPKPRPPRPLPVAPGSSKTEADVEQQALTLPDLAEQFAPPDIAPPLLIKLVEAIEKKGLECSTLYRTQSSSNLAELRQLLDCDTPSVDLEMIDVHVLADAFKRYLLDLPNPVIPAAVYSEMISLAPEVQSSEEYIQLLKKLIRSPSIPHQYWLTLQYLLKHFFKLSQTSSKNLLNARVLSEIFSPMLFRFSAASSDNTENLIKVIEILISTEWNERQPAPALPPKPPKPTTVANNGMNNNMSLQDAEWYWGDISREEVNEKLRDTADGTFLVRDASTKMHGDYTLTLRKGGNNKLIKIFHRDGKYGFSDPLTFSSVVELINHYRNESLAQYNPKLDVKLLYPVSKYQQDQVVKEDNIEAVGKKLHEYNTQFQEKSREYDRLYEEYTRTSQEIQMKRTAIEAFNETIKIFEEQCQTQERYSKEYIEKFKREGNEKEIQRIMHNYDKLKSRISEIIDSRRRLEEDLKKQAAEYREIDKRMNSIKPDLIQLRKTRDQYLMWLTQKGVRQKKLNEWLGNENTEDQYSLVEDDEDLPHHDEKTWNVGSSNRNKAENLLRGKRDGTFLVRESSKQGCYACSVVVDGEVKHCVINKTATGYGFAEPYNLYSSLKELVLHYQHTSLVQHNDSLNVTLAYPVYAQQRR

stability among the polymorphic forms evaluated [4] | Compound | inhibition of PI3K [1] | phosphorylation of multiple downstream components of the PI3K signaling pathway [2] | tumor growth in human xenograft tumor models [3]
– | COc1ccc(Cl)c(Nc2nc3ccccc3[nH]/c2=N\S(=O)(=O)c2cccc(NC(=O)C(C)(C)N)c2)c1 [Compound (I), N-(3-{[(2Z)-3-[(2-chloro-5-methoxyphenyl)amino]quinoxalin-2(1H)-ylidene]sulfamoyl}phenyl)-2-methylalaninamide] | potent and selective inhibitor | inhibits phosphorylation | tumor growth inhibition and tumor regression
most stable polymorphic form | COc1ccc(Cl)c(Nc2nc3ccccc3nc2NS(=O)(=O)c2cccc(NC(=O)C(C)(C)N)c2)c1 [Polymorph E, N-(3-{[(2Z)-3-[(2-chloro-5-methoxyphenyl)amino]quinoxalin-2(1H)-ylidene]sulfamoyl}phenyl)-2-methylalaninamide] | – | – | –
